Source: patent publication US8158621B2, “Methods of treating or preventing autoimmune diseases with 2,4-pyrimidinediamine compounds” (Rigel Pharmaceuticals, Inc., priority 2002, dated 2012)

Legend:
[1] = tested on: Human Jurkat T-cells (clone N); experiment: Jurkat T-cell activation (anti-TCR, CD69 upregulation); format: cell-based
How it was run: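 Readout is CD69 upregulation by flow cytometry (anti-CD69-APC, 20 min at 4 °C) after 20 h anti-TCR (C305, 500 ng/ml) stimulation at 37 °C.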

[2] = tested on: bone marrow derived mast cells (BMMC); experiment: BMMC high cell density IgE activation: hexosaminidase; format: cell-based, mouse; conditions: high cell density; read-out: BMMC anti-IgE Hexos.
[3] = tested on: Primary T-cells; experiment: Primary T-cell cytokine production (αCD3/αCD28): TNF; format: cell-based, human; conditions: read-out: 1° T-Cell TNF IC50
Protocol: (§1) 2E8-4E8 PBMC or proliferating T cells grown in rIL-2 from healthy human donors were suspended in PBS were spun down (1500 rpm, 8-10 minutes) and resuspended in 100 ml RPMI Complete media (1% Pen-Strep, 1% L-Glutamine, 10 mM HEPES). The cells were plated in T175 flasks (37° C., 5% CO2) and monocytes were allowed to adhere for 2-3 hours. After monocyte attachment, non-adherent cells were harvested, counted by hemocytometer, washed several times with PBS then resuspended in Yssels Complete Media (Modified IMDM Media with 1% Human AB Serum, 1% Pen-Strep, 1% L-Glutamine, 10 mM HEPES) at […]. 90 uL of the cell dilution were then added to compounds diluted to 2× in Yssel's media and incubated for 30 minutes at 37° C. (5% CO2). After this preincubation step the compound/cell mixture was transferred to stimulation plates, as described below.
(5% CO2) for at 3-5 hours. After incubation with the stimulation antibodies, the cocktail was removed and the plates washed 3 times with PBS prior to addition of the primary T cell/compound mixture.
(§2) The compound/cell mixture was transferred to the stimulation plates and incubated for 18 hr at 37° C. (5% CO2). After the cell stimulation, ˜150 μl supernatant were transferred from each well into 96-well filter plates (Coming PVDF Filter Plates) spun down (2000 rpm, 2-3 minutes) and either used immediately for ELISA or LUMINEX measurements or frozen down at −80° C. for future use.
(§3) Luminex immunoassay multiplexing for TNF, IL-2, GMSCF, IL-4 and IFNg was performed essentially as described by the manufacturer (Upstate Biotechnology). Essentially 50 uL of sample was diluted into 50 uL assay diluent and 50 uL incubation buffer, then incubated with 100 uL of the diluted detection antibody for 1 hr at RT in the dark. The filter plate was washed 2× in Wash Buffer, then incubated with 100 uL of the diluted secondary reagent (SAV-RPE) for 30 min at RT in the dark. Finally the plates were washed 3 times and bead identification and RPE fluorescent measured by the Luminex instrument.
(§4) Varied concentrations of compound were compared to solvent only to determine the inhibition of T-cell activation IC50 of each compound.

[4] = tested on: cultured human mast cells (CHMC); experiment: CHMC low cell density ionomycin activation: tryptase assay; format: cell-based; conditions: low cell density; read-out: CHMC Ionomycin Tryptase
[5] = tested on: Primary T-cells; experiment: Primary T-cell cytokine production (αCD3/αCD28): IL-4; format: cell-based, human; conditions: read-out: 1° T-Cell IL4 IC50
Protocol: as §1
(§5) Stimulation plates were prepared by coating 96 well plates with 5 μg/ml αCD3 (BD PharMingen, Catalog #555336)+10 μg/ml αCD28 (Beckman Coulter, Catalog #IM1376) in PBS (no Ca^2+/Mg^2+) at 37° C. (5% CO2) for at 3-5 hours. After incubation with the stimulation antibodies, the cocktail was removed and the plates washed 3 times with PBS prior to addition of the primary T cell/compound mixture.
as §2, §3, §4

[6] = tested on: Primary T-cells; experiment: Primary T-cell cytokine production (αCD3/αCD28): IFNg; format: cell-based, human; conditions: read-out: 1° T-Cell IFNg IC50
Protocol: as §1, §5, §2, §3, §4

[7] = tested on: cultured human mast cells (CHMC); experiment: CHMC low cell density IgE activation: tryptase assay; format: cell-based; conditions: low cell density; read-out: CHMC anti-IgE Tryptase
How it was run: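 Degranulation was triggered with anti-IgE for 30 minutes at 37° C in cultured human mast cells seeded at low density (1000-1500 cells/well, chosen by donor) after a 1 hr equilibration in MT buffer. Released tryptase in cleared supernatant was quantified with a tryptase substrate at room temperature for 30 minutes.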

[8] = tested on: Primary T-cells; experiment: Primary T-cell cytokine production (αCD3/αCD28): GMSCF; format: cell-based, human; conditions: read-out: 1° T-Cell GMSCF IC50
Protocol: as §1, §5, §2, §3, §4

[9] = tested on: bone marrow derived mast cells (BMMC); experiment: BMMC high cell density IgE activation: TNFalpha; format: cell-based, mouse; conditions: high cell density; read-out: BMMC anti-IgE TNF-alpha
Protocol: (§6) After sensitizing, cells are counted, pelleted (1000 rpm, 5-10 minutes), and resuspended at 1-3×10^6 cells/ml in MT buffer. Add 100 ul of cell suspension to each well and 100 ul of compound dilutions. The final vehicle concentration is 0.5% DMSO. Incubate at 37° C. (5% CO2) for 1 hour. After 1 hour of compound treatment, stimulate cells with 6× stimulus (60 ng/ml DNP-BSA). Mix wells with the cells and allow plates to incubate at 37° C. (5% CO2) for one hour. After 1 hour incubation, pellet cells (10 minutes, 1000 RPM) and collect 200 ul per well of the supernatant, being careful not to disturb pellet, and transfer to a clean tube or 96-well plate. Place the supernatant plate on ice. During the 4-5 hour step (see next) perform the hexosiminidase assay. Resuspend cell pellet in 240 ul WEI-conditioned media containing 0.5% DMSO and corresponding concentration of compound. Incubate BMMC cells for 4-5 hours at 37° C. (5% CO2). After incubation, pellet cells (1000 RPM, 10 minutes) and collect 225 ul per well and place in −80° C. until ready to perform ELISAS. ELISAS are performed on appropriately diluted samples (determined empirically for each donor cell population so that the sample measurement falls within the standard curve) following the supplier's instructions.

[10] = tested on: bone marrow derived mast cells (BMMC); experiment: BMMC high cell density IgE activation: IL-6; format: cell-based, mouse; conditions: high cell density; read-out: BMMC anti-IgE IL-6
Protocol: as §6

[11] = biological target: T1, Syk kinase (Homo sapiens, UniProt P43405); experiment: Syk kinase biochemical fluorescence polarization assay; conditions: isolated Syk kinase, fluorescence polarization, 4 uM ATP
T1 construct: purchased Upstate, Lake Placid NY

[12] = tested on: Primary T-cells; experiment: Primary T-cell cytokine production (αCD3/αCD28): IL-2; format: cell-based, human; conditions: read-out: 1° T-Cell IL2 IC50
Protocol: as §1, §5, §2
IL-2 ELISAs were performed using the Quantikine Human IL-2 ELISA kit (R&D Systems, Catalog # D2050) as described by the manufacturer and absorption was measured on a spectrophotometer at 450 nm wavelength. Blank values were substracted and absorbances were converted to pg/mL based on the standard curve.
as §3, §4

[13] = tested on: differentiated human macrophages; experiment: Macrophage activation, IgG stimulation: IL-6; format: cell-based; conditions: stimulus (IgG or LPS) not given; read-out: Monocytes/Macrophage IL-6 IC50
Protocol: CD 14+ monocytes were purified from PBMC (Allcells # PB002) using the Monocyte Isolation kit (Miltenyi biotec #130-045-501) as per the manufacturer's instructions. Purity was assessed by measuring the percentage of CD14+ cells by flow cytometry. Typically >90% purity is achieved. The purified CD14+ cells are then plated out (6×10^6 cells/150 cm TC dish in 15 mls media) in Macrophage-SFM (Gibco #12065-074) with 100 ng/ml of M-CSF (Pepro Tech #300-25) and allowed to differentiate for five days. At the end of that period, cell morphology and cell surface markers (CD14, HLA-DR, B7.1, B7.2, CD64, CD32, and CD16) reflected the presence of mature differentiated macrophage.
(§7) A negative control consisting of the F(ab′)2 fragment was also coated to assess background stimulation. Unbound antibody was washed away 2× with 200 ul PBS. 20 ul of 5× compound was added to each well, followed by the addition 15 k cells of differentiated macrophage in 80 uL that had been scraped off of the plates. The cells were incubated for 16 hr in a 37° C. incubator, and supernatants were collected for Luminex analysis for IL-6 and TNFα, essentially as described for the primary T-cells, above.
Varied concentrations of compound were compared to solvent only to determine the IC50 of each compound for each cytokine Representative IC50 s for 2,4-pyrimidinediamine compounds of the invention are shown in Table 11.

[14] = tested on: differentiated human macrophages; experiment: Macrophage activation, IgG stimulation: TNF; format: cell-based; conditions: stimulus (IgG or LPS) not given; read-out: Monocytes/Macrophage TNF IC50
Protocol: Purity was assessed by measuring the percentage of CD14+ cells by flow cytometry.
as §7, with “20 ul of 5× compound was added to each well, followed by the addition 15 k cells of differentiated macrophage in 80 uL that had been scraped off of the plates.” left out

Structure (SMILES) | IC50 [1] | IC50 [2] | IC50 [3] | IC50 [4] | IC50 [5] | IC50 [6] | IC50 [7] | IC50 [8] | IC50 [9] | IC50 [10] | IC50 [11] | IC50 [12] | IC50 [13] | IC50 [14]
CNC(=O)COc1cccc(Nc2ncc(F)c(Nc3ccc4c(c3)NC(=O)[C@H](C)O4)n2)c1 [Compound R909317] | 224 nM | 2 nM | 595 nM | > 10000 nM | 876 nM | 1570 nM | 28.7 nM | 1740 nM | 7 nM | 6 nM | 8 nM | 1320 nM |  | 
Cc1cccc(C)c1Nc1ncc(F)c(Nc2ccc3c(c2)NC(=O)C(C)(C)O3)n1 [Compound R927069] | 930 nM | 1350 nM |  | 13000 nM |  |  | 76 nM |  | 930 nM | 1090 nM | 111 nM |  | 5650 nM | 8500 nM
Cn1ncc2ccc(Nc3ncc(F)c(Nc4ccc5c(c4)NC(=O)C(C)(C)O5)n3)cc21 [Compound R940366] | 86 nM | 30 nM |  | 40000 nM |  |  | 37 nM |  | 5 nM | 10 nM | 3 nM |  | 97 nM | 86 nM
